# PubChem BioAssay AID212 (DTP/NCI, 2004)
# “And” between values parts separate entries of the source, which are not always exact repeats. Equal values may be shown once. Results filed as inconclusive are left out.
# Tested on: BDF1 mice, colon carcinoma 38 sc, T/C %
# Assay: NCI In Vivo Anticancer Drug Screen. Data for tumor model Colon Carcinoma 38 (subcutaneous) in B6D2F1 (BDF1) mice
# Summary of the method: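 Transplantable tumor in mice; compound-treated vs vehicle-dosed controls. Measured survival or tumor size; value = T ÷ C.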
# [1] = endpoint: median tumor weight (est.), dose: 50.0 mg/kg/injection, schedule: Q07DX002 (ip), vehicle: Klucel (hydroxypropylcellulose) (HPC), higher = larger tumour
# [2] = endpoint: median tumor weight (est.), dose: 50.0 mg/kg/injection, schedule: Q07DX002 (ip), vehicle: saline with Tween-80, higher = larger tumour
# [3] = endpoint: median tumor weight (est.), dose: 100.0 mg/kg/injection, schedule: Q07DX002 (ip), vehicle: saline with Tween-80, higher = larger tumour
# [4] = endpoint: median tumor weight (est.), dose: 25.0 mg/kg/injection, schedule: Q07DX002 (ip), vehicle: Klucel (hydroxypropylcellulose) (HPC), higher = larger tumour
# [5] = endpoint: median tumor weight (est.), dose: 100.0 mg/kg/injection, schedule: Q07DX002 (ip), vehicle: Klucel (hydroxypropylcellulose) (HPC), higher = larger tumour
# [6] = endpoint: median tumor weight (est.), dose: 12.5 mg/kg/injection, schedule: Q07DX002 (ip), vehicle: saline with Tween-80, higher = larger tumour
# [7] = endpoint: median tumor weight (est.), dose: 25.0 mg/kg/injection, schedule: Q07DX002 (ip), vehicle: saline with Tween-80, higher = larger tumour
# [8] = endpoint: median tumor weight (est.), dose: 200.0 mg/kg/injection, schedule: Q07DX002 (ip), vehicle: saline with Tween-80, higher = larger tumour
# [9] = endpoint: median tumor weight (est.), dose: 400.0 mg/kg/injection, schedule: Q07DX002 (ip), vehicle: saline with Tween-80, higher = larger tumour
structure (smiles),measurement,setting,value
CCN(CC)CCOC(=O)Cc1cccc2c(=O)cc(-c3ccccc3)oc12,T/C,"endpoint: median survival time, dose: 133.0 mg/kg/injection, schedule: Q07DX002 (ip), vehicle: saline, higher = longer survival",110 % of control
same,T/C,"endpoint: median survival time, dose: 200.0 mg/kg/injection, schedule: Q07DX002 (ip), vehicle: saline, higher = longer survival",313 % of control
same,T/C,"endpoint: median tumor weight (est.), dose: 3.12 mg/kg/injection, schedule: Q07DX002 (iv), vehicle: saline, higher = larger tumour",92 % of control
same,T/C,"endpoint: median tumor weight (est.), dose: 6.25 mg/kg/injection, schedule: Q07DX002 (ip), vehicle: saline, higher = larger tumour",74 % of control
same,T/C,"endpoint: median tumor weight (est.), dose: 6.25 mg/kg/injection, schedule: Q07DX002 (iv), vehicle: saline, higher = larger tumour",88 % of control
same,T/C,"endpoint: median tumor weight (est.), dose: 12.5 mg/kg/injection, schedule: Q07DX002 (iv), vehicle: saline, higher = larger tumour",109 % of control
same,T/C,"endpoint: median tumor weight (est.), dose: 25.0 mg/kg/injection, schedule: Q07DX002 (iv), vehicle: saline, higher = larger tumour",46 % of control
same,T/C,"endpoint: median tumor weight (est.), dose: 28.0 mg/kg/injection, schedule: Q07DX002 (iv), vehicle: saline, higher = larger tumour",122 % of control
same,T/C,"endpoint: median tumor weight (est.), dose: 37.5 mg/kg/injection, schedule: Q07DX002 (iv), vehicle: saline, higher = larger tumour",110 % of control
same,T/C,[1],61 % of control
same,T/C,[2],45 % of control
same,T/C,"endpoint: median tumor weight (est.), dose: 50.0 mg/kg/injection, schedule: Q07DX009 (ip), vehicle: saline, higher = larger tumour",84 % of control
same,T/C,[3],61 % of control
same,T/C,"endpoint: median tumor weight (est.), dose: 100.0 mg/kg/injection, schedule: Q07DX009 (ip), vehicle: saline, higher = larger tumour",40 % of control
same,T/C,"endpoint: median tumor weight (est.), dose: 112.0 mg/kg/injection, schedule: Q07DX002 (ip), vehicle: saline, higher = larger tumour",105 % of control
same,T/C,"endpoint: median tumor weight (est.), dose: 150.0 mg/kg/injection, schedule: Q07DX002 (ip), vehicle: saline, higher = larger tumour",89 % of control
CC(=O)OCC1OC(n2cc(CBr)nn2)C(OC(C)=O)C(OC(C)=O)C1OC(C)=O (configuration not stated),T/C,"endpoint: median tumor weight (est.), dose: 6.25 mg/kg/injection, schedule: Q07DX003 (ip), vehicle: Klucel (hydroxypropylcellulose) (HPC), higher = larger tumour",46 % of control
same,T/C,"endpoint: median tumor weight (est.), dose: 6.25 mg/kg/injection, schedule: Q07DX003 (ip), vehicle: saline with Tween-80, higher = larger tumour",120 % of control
same,T/C,"endpoint: median tumor weight (est.), dose: 12.5 mg/kg/injection, schedule: Q07DX003 (ip), vehicle: Klucel (hydroxypropylcellulose) (HPC), higher = larger tumour",93 % of control
same,T/C,"endpoint: median tumor weight (est.), dose: 12.5 mg/kg/injection, schedule: Q07DX003 (ip), vehicle: saline with Tween-80, higher = larger tumour",67 % of control
same,T/C,"endpoint: median tumor weight (est.), dose: 25.0 mg/kg/injection, schedule: Q07DX003 (ip), vehicle: Klucel (hydroxypropylcellulose) (HPC), higher = larger tumour",120 % of control
same,T/C,"endpoint: median tumor weight (est.), dose: 25.0 mg/kg/injection, schedule: Q07DX003 (ip), vehicle: saline with Tween-80, higher = larger tumour",90 % of control
same,T/C,"endpoint: median tumor weight (est.), dose: 50.0 mg/kg/injection, schedule: Q07DX003 (ip), vehicle: saline with Tween-80, higher = larger tumour",53 % of control
same,T/C,"endpoint: median tumor weight (est.), dose: 100.0 mg/kg/injection, schedule: Q07DX003 (ip), vehicle: saline with Tween-80, higher = larger tumour",64 % of control
CC(C)CC(=O)NC(C(=O)NC(C(=O)NC(CC(C)C)C(O)CC(=O)NC(C)C(=O)NC(CC(C)C)C(O)CC(=O)O)C(C)C)C(C)C (configuration not stated),T/C,[4],79 % of control
same,T/C,[1],109 % of control
same,T/C,[5],95 % of control
same,T/C,"endpoint: median tumor weight (est.), dose: 200.0 mg/kg/injection, schedule: Q07DX002 (ip), vehicle: Klucel (hydroxypropylcellulose) (HPC), higher = larger tumour",120 % of control
CC(=O)Oc1c[nH]c(=O)[nH]c1=O,T/C,"endpoint: median tumor weight (est.), dose: 50.0 mg/kg/injection, schedule: Q07DX002 (ip), vehicle: distilled water + Tween-80, higher = larger tumour",107 % of control
same,T/C,"endpoint: median tumor weight (est.), dose: 100.0 mg/kg/injection, schedule: Q07DX002 (ip), vehicle: distilled water + Tween-80, higher = larger tumour",108 % of control and 121 % of control
same,T/C,"endpoint: median tumor weight (est.), dose: 400.0 mg/kg/injection, schedule: Q07DX002 (ip), vehicle: distilled water + Tween-80, higher = larger tumour",124 % of control
same,T/C,"endpoint: median tumor weight (est.), dose: 800.0 mg/kg/injection, schedule: Q07DX002 (ip), vehicle: distilled water + Tween-80, higher = larger tumour",121 % of control and 102 % of control
C1=CCOCOC1,T/C,[6],77 % of control
same,T/C,[7],94 % of control and 104 % of control
same,T/C,[3],72 % of control
same,T/C,[8],58 % of control
Cc1ccc(Cl)c2ccccc12,T/C,[6],96 % of control and 102 % of control
same,T/C,[7],92 % of control
same,T/C,[3],89 % of control and 96 % of control
same,T/C,[8],88 % of control and 96 % of control
same,T/C,[9],87 % of control
CSc1nc(=O)[nH]nc1SCc1ccccc1,T/C,[4],151 % of control and 169 % of control
same,T/C,"endpoint: median tumor weight (est.), dose: 400.0 mg/kg/injection, schedule: Q07DX002 (ip), vehicle: Klucel (hydroxypropylcellulose) (HPC), higher = larger tumour",65 % of control
O=c1ssc(=Nc2ccccc2)n1-c1ccccc1,T/C,[5],97 % of control and 102 % of control
BrCC[Se]c1ccccc1,T/C,"endpoint: median tumor weight (est.), dose: 6.25 mg/kg/injection, schedule: Q07DX002 (ip), vehicle: saline with Tween-80, higher = larger tumour",158 % of control and 177 % of control
same,T/C,[6],100 % of control and 104 % of control
same,T/C,[2],107 % of control
same,T/C,[8],178 % of control
CCC(=O)Sc1ccccc1C(=O)Nc1ccc(Cl)cc1,T/C,[2],120 % of control
same,T/C,[3],104 % of control
same,T/C,[8],114 % of control
same,T/C,[9],59 % of control
